Experimental data: patent publication US20200038393A1, “APOMORPHINE PLUS BUSPIRONE COMBINATION FOR MEMORY REVIVAL” (priority 2018, published 2020)

What was measured:
[1] = Exploratory activity in novel environment of an open field; assay type: in vivo; conditions: rats
Description: Open field consisted of a square area (76×76 cm) with walls 42 cm high. Floor of the apparatus was divided by lines into 25 squares of equal size. Experiment was conducted in a quiet room under white light. Animals were tested 24 hr post 1st and 6th apomorphine injection. Numbers of squares crossed with all four paws and latency to move from the central square were scored for 5 min.

[2] = Motor behavior (cage crossings) and % psychosis like effects during conditioning phase; assay type: in vivo; conditions: rats
Description: (§1) This phase started one day after pre-conditioning phase, animals were randomly assigned to six groups, each containing six animals: (i) buspirone (0 mg/kg)-saline, (ii) buspirone (0 mg/kg)-[…], (iii) buspirone (1 mg/kg)-saline, (iv) buspirone (1 mg/kg)-apomorphine, (v) buspirone (2 mg/kg)-saline and (vi) buspirone (2 mg/kg)-apomorphine injected animals. Over next 12 days (day 1 to day 12) animals went through conditioning (one session per day) in which they were confined to either the horizontal or vertical stripe compartment by raising the respective guillotine door. On day 1, 3, 5, 7, 9 and 11 animals of all groups were injected with saline (1 ml/kg) and placed immediately in the assigned ‘Non-Drug paired’ compartment for 30 min. After which the animals were kept back in their home cages. On every other day, i.e. day 2, 4, 6, 8, 10, and 12 control and test animals were injected with saline, buspirone and/or apomorphine as assigned above. Immediately after injections, animals were placed in the ‘Drug paired’ compartment for 30 min. The animals picked from the drug paired compartment were placed back in their home cages.
Motor behavior was also monitored during conditioning phase. Animals confined to a compartment were moving across the compartment. Activity scores were counted as number of cage crossings for 10 min starting 5 min post injection.

[3] = Morris water maze test (learning acquisition, memory consolidation, retention); assay type: in vivo, rats
Description: The Morris water maze test was conducted after repetitive apomorphine injections and post-conditioning. Water temperature was at room temperature, 21±1° C. The platform (10 cm×10 cm) was made of clear acrylic and was hidden 2 cm below the surface of water in a fixed location. Water was made opaque by adding milk to it.
During training phase, each rat was placed into the water facing the wall of the tank and allowed 120 sec to locate and climb onto the submerged platform. The rat was allowed to stay on the platform for 10 sec. […] After the training animals were tested three times.
Each rat was tested immediately after training. Learning acquisition was determined by recording the initial latency (IL; the time taken by each rat to relocate the hidden platform).
Rats were tested for memory consolidation 60 min post training. It was determined by recording the retention latency (RL; the time taken by each rat to locate the hidden platform 1 h after training). The cut off time for each session was 2 min.
Rats were tested for memory retention 24 hr post training session. Memory retention was determined by recording the retention latency (RL; the time taken by each rat to locate the hidden platform 24 hr post training). The cut off time for each session was 2 min.

[4] = Conditioned place preference (CPP) test for addictive/reinforcing effects; assay type: in vivo, rats
Text: Apparatus for Conditioned Place Preference
A three compartment conditioned place preference (CPP) apparatus with an unbiased design was used to monitor drug-induced reinforcement. The apparatus was made up of transparent plastic Perspex. The compartments were separated by sliding guillotine doors.
The end (preference) compartments (26×26×26 cm each) provided distinct contexts, with one compartment having black horizontal stripes on side walls, the other compartment had vertical black stripes. […] The experiment was conducted in three distinct phases: pre-conditioning, conditioning and post-conditioning.
An animal introduced in the CPP apparatus from the middle compartment and guillotine doors were raised to open. The animal was allowed to explore the entire apparatus for 10 min. Time spent in each compartment was recorded.
as §1
The test was carried out on day 13, 24 hr post last conditioning session, in a drug free state. Each animal was tested only once. As in the pre-conditioning phase, the guillotine doors were removed and rat was given access to the entire apparatus for 10 min. Time spent in ‘Drug paired’ compartment was monitored.

[5] = buspirone 1 mg/kg co-treated with apomorphine 1 mg/kg
[6] = buspirone 1 mg/kg with apomorphine, rats
[7] = buspirone co-injected animals (summary statement)
[8] = buspirone 1 mg/kg co-administered with apomorphine 1 mg/kg, rats

Row | Motor activities post repeated administration ([2]; apomorphine 1 mg/kg, repeated administration) | % psychosis like effects ([2]; apomorphine 1 mg/kg) | Post-conditioning values of time spent in the drug paired compartment ([4]; apomorphine 1 mg/kg, repeated, vs pre-conditioning/saline, rats) | % reinforcement ([4]; apomorphine 1 mg/kg, rats) | SMILES | Effect on apomorphine-increased exploratory activity ([1]; buspirone 1 mg/kg, after 6th apomorphine injection) | Effect on % psychosis like effects produced by apomorphine [2, 5] | Effect on apomorphine-increased motor activities post repeated administration [2, 5] | Effect on apomorphine-increased learning acquisition [3, 6] | Effect on apomorphine-increased memory consolidation [3, 6] | Effect on apomorphine-increased memory retention [3, 6] | Memory enhancing effects of apomorphine [3, 7] | Effect on apomorphine-induced increases in post conditioning values of time spent in drug paired compartment [4, 8] | Reinforcement effects of apomorphine [4, 8] | Addiction to apomorphine [4, 7] | Exploratory activity in open field ([1]; apomorphine alone) | Motor activities post single administration ([2]; apomorphine 1 mg/kg, single administration) | Memory consolidation (time taken to reach platform) ([3]; apomorphine vs saline treated animals, 60 min post training, rats) | Memory retention (time taken to reach platform) ([3]; apomorphine vs saline treated animals, 24 hr post training, rats) | Learning acquisition (time taken to reach platform) ([3]; apomorphine vs saline treated animals, tested immediately after training, rats)
1 | – | – | – | – | O=C1CC2(CCCC2)CC(=O)N1CCCCN1CCN(c2ncccn2)CC1 [buspirone] | attenuated | attenuated | attenuated | further potentiated | further potentiated | further potentiated | potentiated | significantly attenuates | did not occur | reduced | – | – | – | – | –
2 | increased | produced | much higher | increased | CN1CCc2cccc3c2[C@H]1Cc1ccc(O)c(O)c1-3 [apomorphine] | – | – | – | – | – | – | – | – | – | – | increased | increase | increase | increase | increase
